Data taken from patent US7482137B2, “Hybrid glycosylated products and their production and use” (Biotica Technology Limited, priority 2000, dated 2009).

Test system: Bacillus subtilis ATCC 6633
Assay: Filter disc bioassay, zones of inhibition in B. subtilis lawn
Format: cell-based
Conditions: 10-fold dilution series of 1.1 mg in 200 μl methanol, 10 μl per filter disc; indicator strain Bacillus subtilis ATCC 6633
Procedure: Cosmid no 7 which has been isolated from a Streptomyces fradiae cosmid library, was kindly provided by J. Corts. E. coli transformants were selected with 100 ug/ml ampicillin. The Saccharopolyspora erythraea NRRL 2338-red variant strain (Hessler et al., Appl. Microbiol. Biotechnol. (1997) 47:398-404) was kindly provided by J. M. Weber and was routinely maintained on M1-102 agar (Kaneda et al. J. Biol. Chem. (1962) 237:322-327), R2T20 (Yamamoto et al. J. Antibiot. (1986) 34:1304-1313), R2T2 (same as R2T (Weber et al. J. Bacterial. (1985)164:425-433), but without peptone), and TSB (Difco) for liquid cultures at 30° C. Bacillus subtilis ATCC 6633 was used in bioassays to assess erythromycin production as described (Gaisser et al. (1997), supra). […] Both metabolites (10 μl of 10 mM stock solution) were applied to agar wells cut into the S. erythraea lawn and incubated at 30° C. overnight as described (Gaisser et al. (1997) supra) and the development of zones of inhibition in the B. subtilis lawn around S. erythraea colonies was assessed. […]
Bacillus subtilis ATCC 6633 was used in bioassays as described previously (Gaisser et al., 1998). […] The development of zones of inhibition in the B. subtilis lawn was assessed.

## CCC1OC(=O)C(C)C(OC2OC(C)C(O)C(O)C2OC)C(C)C(OC2OC(C)CC(N(C)C)C2O)C(C)(O)CC(C)C(=O)C(C)C(O)C1C (stereo not shown) [3-O-(2′-O-methylrhamnosyl)erythromycin D]
  bioactivity, fold less compared to erythromycin A (size of the halos around filter discs): about 100 fold
